Experimental data taken from patent US7794936B1, “Using thymidine analogs to improve replication in an expanded genetic alphabet” (priority 2006, dated 2010).

Experiments:
KlenTaq polymerase [1] = biological target: T1, KlenTaq polymerase (Thermus aquaticus, UniProt P19821); assay: Running-start primer extension reactions, incorporation opposite template isoG; type: biochemical; conditions: template T-1, primer P-1, 72° C.; for incorporation / misincorporation opposite isoG (gel band, in words): time points 0.5, 1.0, 3.0 min
T1 construct: The “Klenow” fragment of Taq polymerase (Titanuim™ Taq) was purchased from BD Biosciences; purchased BD Biosciences (Mountain View, Calif.)
T1 sequence (P19821 281-832 limits assumed): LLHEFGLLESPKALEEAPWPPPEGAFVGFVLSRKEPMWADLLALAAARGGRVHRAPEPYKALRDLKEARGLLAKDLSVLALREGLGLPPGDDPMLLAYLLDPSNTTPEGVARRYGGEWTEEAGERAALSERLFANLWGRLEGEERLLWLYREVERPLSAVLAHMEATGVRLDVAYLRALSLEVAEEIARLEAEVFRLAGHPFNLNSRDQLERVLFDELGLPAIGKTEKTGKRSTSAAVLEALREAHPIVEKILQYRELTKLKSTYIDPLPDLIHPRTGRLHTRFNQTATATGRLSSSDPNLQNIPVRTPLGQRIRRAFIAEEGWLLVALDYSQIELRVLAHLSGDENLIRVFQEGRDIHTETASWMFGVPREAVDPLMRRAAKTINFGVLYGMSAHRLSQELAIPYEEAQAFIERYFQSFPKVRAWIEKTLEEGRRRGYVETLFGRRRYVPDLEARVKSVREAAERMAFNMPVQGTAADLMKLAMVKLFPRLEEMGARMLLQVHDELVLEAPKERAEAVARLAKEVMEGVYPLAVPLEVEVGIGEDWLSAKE
Description: (§1) The “Klenow” fragment of Taq polymerase (Titanuim™ Taq) was purchased from BD Biosciences (Mountain View, Calif.). As Titanium™ Taq is a “hot start” enzyme, the enzyme was heated to 95° C. for 2 minutes, followed by rapid cooling to ambient temperature prior to any primer extension reactions. Similarly, all polymerase chain reactions included an initial 2 minute 95° C. denaturation cycle.
In a typical primer extension reaction (25 μL total volume), 5′-^32P labeled primer (P-1, 25 pmol) and template (T-1, 30 pmol) were mixed with buffer (10 mM bis-trispropane-HCl pH 9.1, 5 mM MgCl2, 40 mM potassium acetate, 0.1 mg/ml bovine serum albumin), heated (95° C., 5 min), and cooled to room temperature over 1 hour. Polymerase (1 unit) was added, and the mixture again heated (72° C., 10 sec). Each PCR was initiated by adding the appropriate dNTPs (100 μM final concentration). Aliquots (2 μL) were removed from the mixture at time intervals, diluted into a PAGE loading/quench buffer (2 μL, 20 mM EDTA in formamide), heated (95° C., 5 min) and resolved by electrophoresis using a 20% PAGE (7 M urea). The gel was analyzed by phosphorimager. To enhance reproducibility, master mixes of the primer/template in buffer were prepared in large scale (100 μL).
Running-start primer extension reactions were performed with KlenTaq to determine the ability of the enzyme to incorporate either TTP or 2-thioTTP opposite isoG. For each reaction, the polymerase was challenged to misincorporate the respective triphosphate opposite the isoG residue at position 26 in the template (T-1), 3 nucleotides downstream of the primer (Pf-1) terminus. Reactions were run in parallel, one containing dGTP and TTP, one containing dGTP and 2-thioTTP, one containing dGTP and isoCTP (positive control), and one containing only dGTP (negative control). Aliquots of each reaction were quenched at various times and analyzed by PAGE on a 20% polyacrylamide gel.

2-aminoadenine = conditions: cited from earlier work
KlenTaq polymerase [2] = biological target: T1, KlenTaq polymerase; assay: PCR amplification using 2-thioTTP as substitute for TTP (30 rounds, template T-3); type: biochemical; conditions: 30 rounds of PCR, dATP, dCTP, dGTP plus thymidine analog, 2% agarose gel
Description: as §1
Amplicons testing the substitution of 2-thioTTP for TTP in a PCR were generated as above, using primers P-2f and P-2r (1 pmol each), template T-3 (6×10^4 molecules), and either all four natural dNTPs (100 μM each) or by substituting 2-thioTTP for TTP.
After showing that 2-thioTTP is misincorporated less frequently than TTP opposite isoG residues, we then established that 2-thioTTP works in a PCR amplification. For this purpose, replicate polymerase chain reactions with KlenTaq polymerase were performed using the PCR replicon consisting of primers P-2f and P-2r and template T-3. Three reactions were run in parallel, one containing the four natural dNTPs (positive control), one containing dCTP, dGTP, dATP, and 2-thioTTP, and one without TTP (negative control). Each amplification was cycled for 30 rounds, and the products were analyzed by electrophoresis on a 2% agarose gel.

KlenTaq polymerase [3] = biological target: T1, KlenTaq polymerase; assay: Direct nucleotide competition, single-turnover primer extension with APM gel separation; type: biochemical
Description: as §1
Single turnover primer extension reactions were performed by annealing 5′-^32P labeled primer (P-2f, 1 pmol) and template (T-2 or T-3, 1 pmol) in the appropriate buffer described above. Polymerase (1 pmol) was added, and the mixture was heated (72° C., 10 sec). The reaction was initiated by adding isoCTP (100 μM) and either 2-thioTTP (100 μM) or TTP (100 μM) in the presence of unlabeled trap DNA (P-2f, 100 pmol, T-2, 100 pmol). The reaction was quenched (20 mM EDTA in HCONH2) after 20 sec, and the samples resolved by 20% PAGE (7 M urea) containing p-acrylamidophenylmercury chloride (APM, 1 μg/mL). […] APM was synthesized as described [Igl88].
In two parallel reactions, one containing equal concentrations of 2-thioTTP and TTP, and one containing equal concentrations of 2-thioTTP and isoCTP, KlenTaq polymerase was challenged to choose a nucleotide to incorporate opposite isoG. […] The gel was analyzed via radioimaging.

KlenTaq polymerase [4] = biological target: T1, KlenTaq polymerase; assay: PCR fidelity assay of isoC:isoG base pair replication (acid cleavage at isoC); type: biochemical; conditions: six letter PCR, template T-2, 30 cycles, fit to Y=100×(½+f/2)^x
Description: as §1
For each 6-letter nucleotide system investigated, seven parallel PCR mixtures were cycled (30 rounds, 95° C. for 45 sec. then 45° C. for 45 sec. then 72° C. for 1.5 min) with the same amounts of primers P-2f (^32P labeled) and P-2r (1 pmol; 6×10^11 molecules) and varying concentrations of template T2. […] As each 10 fold dilution in template was equivalent to ca. 3.3 rounds of amplification, the fidelity of the isoC:isoG replication could be monitored on a round-by-round basis, with each amplicon requiring a different number of exponential amplifications to consume the primers (Table 2.)
Following amplification, the mixtures were treated with an equal volume of acetic acid (0.1 mM), and heated (95° C., 30 min), a procedure that depyrimidinylates the iso-cytidines that have been incorporated. […] The NH4OH was allowed to evaporate, and the mixtures diluted in 2 volumes of gel loading buffer (98% formamide, 10 mM EDTA, 1 mg/mL bromophenol blue, 1 mg/mL xylene cyanol FF) and analyzed by denaturing PAGE (17%). […]

Row | SMILES | incorporation opposite isoG, isoCTP relative to TTP (KlenTaq polymerase [1]; after one and three minutes of incubation, dNTPs 100 μM) | incorporation / misincorporation opposite isoG (gel band, in words) (KlenTaq polymerase [1]) | decrease in Tm by pair with 2-aminoadenine (2-aminoadenine; 20 nucleotide duplex) | destabilization of the duplex (ΔG) by pair with 2-aminoadenine (2-aminoadenine; nucleobase pair between 2-thioT and 2-aminoadenine) | amount of PCR product (KlenTaq polymerase [2]) | substrate preference for incorporation opposite adenosine (KlenTaq polymerase [3]; 2-thioTTP and TTP in competition, template T-3) | extended product resulting from incorporation of 2-thioTTP opposite isoG (KlenTaq polymerase [3]; equal concentrations (100 μM) of 2-thioTTP and either TTP or isoCTP, template T-2, primer P-2f, 20 sec) | fidelity-per-round of PCR for isoC:isoG base pair (KlenTaq polymerase [4])
1 | Nc1nc(=O)ccn1[C@H]1C[C@H](O)[C@@H](COP(=O)(O)OP(=O)(O)OP(=O)(O)O)O1 [isoCTP, 2′-deoxy-iso-cytidine triphosphate] | approximately 2 fold | incorporated most efficiently | – | – | – | – | – | –
2 | Cc1cn([C@H]2C[C@H](O)[C@@H](CO)O2)c(=S)[nH]c1=O [2-thioT, 2-thiothymidine] | – | – | 2.4 °C | 0.8 kcal/mol | – | – | – | –
3 | Cc1cn([C@H]2C[C@H](O)[C@@H](COP(=O)(O)OP(=O)(O)OP(=O)(O)O)O2)c(=S)[nH]c1=O [2-thioTTP, 2-thiothymidine triphosphate] | – | misincorporated very little | – | – | comparable amounts of product | prefers 2-thioTTP over TTP | less than 1% | 98%
